We go through 10 compounds from patent US11654132B2, “Methods for treating COVID-19” (priority 2020, dated 2023).

Where two headings read alike, the source gives them in different places.

One data set relates to CYP. Particulars: cited from earlier work.
The conditions of data set [1]: in vivo; cited from earlier work.
In data set [2] the test system is CD4 T-cell pyroptotic death in HIV-infected lymphoid tissues. Conditions: dose-dependent; cited from earlier work.
For data set [3] the following is noted: cited from earlier work; for in vivo activity: oral and/or intravenous administration, prodrug vs active form.
For data set [4] the following is noted: in vivo.
A further data set deals with IL-18. Conditions: cited from earlier work; for inhibition of IL-18: during the duration of the study.
The conditions of data set [5]: dogs at 2000 mg/kg/day; cited from earlier work.
A further data set concerns the target CYP3A4 (Homo sapiens, UniProt P08684). Particulars: recombinant enzyme system; cited from earlier work.
The subject of a further data set is IL-1B. Conditions: cited from earlier work.
The target of the next data set is T1, caspase-1 (Homo sapiens, UniProt P29466).
T1 sequence (P29466 120-297 limits assumed): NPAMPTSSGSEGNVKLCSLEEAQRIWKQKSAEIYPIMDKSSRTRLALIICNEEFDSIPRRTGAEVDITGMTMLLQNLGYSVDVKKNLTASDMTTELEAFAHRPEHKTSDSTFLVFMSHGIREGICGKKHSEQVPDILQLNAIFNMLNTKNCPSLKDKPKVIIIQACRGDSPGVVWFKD
T1 sequence (P29466 317-404 limits assumed): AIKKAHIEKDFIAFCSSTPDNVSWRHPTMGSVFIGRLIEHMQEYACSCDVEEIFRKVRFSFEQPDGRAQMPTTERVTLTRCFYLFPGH
Conditions: healthy and disease states; cited from earlier work.

In a further data set the test system is COVID-19. Conditions: mild to moderate COVID-19 at high risk of progressing to severe disease; cited from earlier work.
The next data set relates to SARS-CoV. Conditions: in vitro; cited from earlier work.
The next data set relates to SARS-CoVid-2 infection. Conditions: combined with azithromycin; cited from earlier work.
The subject of another data set is SARS-CoV-2. Particulars: human, in vivo; cited from earlier work.
The test system of a further data set is SARS. Conditions: 400 mg and 100 mg added to ribavirin vs historical control; cited from earlier work.
For data set [6] the following is noted: in vivo; cited from earlier work. The source holds these as a separate data set.
For data set [7] the following is noted: in vivo; cited from earlier work. This is another data set of the same source.
In data set [8] the test system is Lipopolysaccharide stimulated IL-1B production. Conditions: ex-vivo; active metabolite; cited from earlier work.
The conditions of data set [9]: NASH patients; cited from earlier work.
A further data set concerns chronic HCV. Particulars: cited from earlier work.

CYP3A4, sequence (P08684 whole entry): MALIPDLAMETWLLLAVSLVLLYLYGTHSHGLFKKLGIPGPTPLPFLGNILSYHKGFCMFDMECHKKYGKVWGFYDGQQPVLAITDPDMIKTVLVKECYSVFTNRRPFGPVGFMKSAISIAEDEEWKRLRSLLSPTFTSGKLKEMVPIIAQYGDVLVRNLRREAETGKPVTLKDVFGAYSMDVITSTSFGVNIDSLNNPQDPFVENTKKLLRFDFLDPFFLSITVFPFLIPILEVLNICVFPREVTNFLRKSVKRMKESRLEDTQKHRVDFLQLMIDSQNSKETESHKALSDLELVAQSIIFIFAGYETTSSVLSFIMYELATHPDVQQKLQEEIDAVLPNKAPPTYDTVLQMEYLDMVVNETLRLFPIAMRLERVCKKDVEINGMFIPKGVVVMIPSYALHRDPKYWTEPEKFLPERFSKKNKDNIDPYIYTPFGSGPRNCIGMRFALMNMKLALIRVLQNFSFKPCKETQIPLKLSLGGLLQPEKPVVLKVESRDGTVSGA

For the compound `CCO[C@@H]1OC(=O)C[C@@H]1NC(=O)[C@@H]1CCCN1C(=O)[C@@H](NC(=O)c1ccc(N)c(Cl)c1)C(C)(C)C` [belnacasan], in the data set with CYP, the “CYP-mediated metabolism as route of clearance” value is recorded as “not a major route of clearance”. For the same compound, the “adverse effects reported in humans” value in data set [1] was “mild and mainly include headache, nausea, lethargy and dizziness”. Moreover, the seizure result in data set [1] is listed as “reported in more than one patient”. The “severity of adverse events (CTCAE)” value in data set [1] was “mild and of no consequence (grade 1 and 2 by CTCAE criteria)”. Besides, the “CD4 T-cell pyroptotic death” value in data set [2] is listed as “Prevents CD4 T-cell”. In data set [3], the in vivo activity result is “better in vivo activity”. The “dog dose estimated as multiple of the maximum dose in this study” value in data set [4] is given as 10-25 times. Moreover, the “inhibition of IL-18” value in the data set on IL-18 (900 mg TID), with IL-18 (1200 mg TID) and with IL-18 (1800 mg TID) was 60% throughout. For the same compound, in the data set on IL-18 (healthy controls), the “inhibition of IL-18 over 14 days as compared to placebo” value is “gradual but marked inhibition”. In addition, the “only preclinical finding on toxicity studies” value in [5] was “reduction of the heart rate”. On CYP3A4, the “metabolism by CYP3A4” value is listed as “metabolized by CYP3A4”. Further, the “suppression of IL-1B” value is recorded as 50% in the data set with IL-1B (single oral dose of 400 mg), 80% with IL-1B (single oral dose of 800 mg) and 80% in the data set on IL-1B (single oral dose of 1600 mg). For the same compound, the “effect of blocking caspase-1” value on caspase-1 is “prevent production of IL-1β, IL-18, and pyroptosis”.

In the case of “casirivimab: monoclonal antibody for COVID-19”, the efficacy result in the data set with COVID-19 is reported as “efficacious”.

As to `Cc1cccc(C)c1OCC(=O)N[C@@H](Cc1ccccc1)[C@@H](O)C[C@H](Cc1ccccc1)NC(=O)[C@H](C(C)C)N1CCCNC1=O` [lopinavir], the “activity against SARS-CoV” value in the data set on SARS-CoV is “in vitro inhibitory activity”.

For `CCN(CCO)CCCC(C)Nc1ccnc2cc(Cl)ccc12` (centres unmarked) [Hydroxychloroquine], the “viral loads vs control patients” value in the data set on SARS-CoVid-2 infection was “Viral loads appeared to diminish faster”.

With “imdevimab: monoclonal antibody for COVID-19”, in the data set on COVID-19, the efficacy result is “efficacious”.

As for lopinavir—ritonavir, the “clinical symptoms, mortality, viral loads vs standard of care alone” value with SARS-CoV-2 was “no improvement in clinical symptoms, mortality, or viral loads”. The “risk of adverse clinical outcomes (ARDS or death) and viral load” value with SARS is given as “reduced the risk of adverse clinical outcomes”.

Consider `CCO[C@@H]1OC(=O)C[C@@H]1NC(=O)[C@@H]1CCCN2C(=O)CC[C@H](NC(=O)c3nccc4ccccc34)C(=O)N12` [Pralnacasan], for which the “reason for termination in Phase IIb in RA” value in data set [6] is “liver toxicity in animals (102)”. In addition, the “clinical trial outcome in rheumatoid arthritis and osteoarthritis” value in data set [7] was “amelioration of RA, but not”.

As for `CC(C)(C)C(NC(=O)c1ccc(N)c(Cl)c1)C(=O)N1CCCC1C(=O)NC(C=O)CC(=O)O` (centres unmarked) [II], the “CYP-mediated metabolism as route of clearance” value in the data set with CYP (in vitro studies) was “not a major route of clearance”. In addition, the bioavailability entry in data set [3] (active form) is “poor bioavailability”. Further, in [3], the in vivo activity entry is “less than optimal in vivo activity”. Besides, in data set [8], the “concentration at which Lipopolysaccharide stimulated IL-1B production is 50% suppressed” value is 0.8 µg/mL.

Consider “bamlanivimab: monoclonal antibody for COVID-19”, for which, in the data set on COVID-19, the efficacy result was “efficacious”.

On to `CC(C)[C@@]1(C(=O)N[C@H]2CC(=O)O[C@]2(O)CF)CC(c2nccc3ccccc23)=NO1` [Nivocasan], for which, in data set [9], the ALT levels entry is listed as “Reductions in ALT levels in NASH”. The “reason for termination of Phase IIb” value in the data set on chronic HCV is “significant laboratory abnormalities”.
